Marks after values point to notes of the source that are not given here.
Legend:
diabetic rats [1] = assay: Glomerular Filtration Rate from urinary and plasma creatinine in streptozotocin diabetic rats; type: in vivo, Male Wistar rats; details: end of fifth week, mean ±SEM
From the text: Urinary creatinine is estimated by alkaline picrate reagent method. […] The plasma is deproteinsed using tungstic acid prior to creatinine estimation.
The formula used is [formula]

diabetic rats [2] = assay: Urinary protein excretion by TCA precipitation method in streptozotocin diabetic rats; type: in vivo, Male Wistar rats; details: end of fifth week
Experimental: Urinary protein is determined at the end of fifth week by TCA precipitation method and the absorbance is measured at 660 nm.
Diabetes is induced in Male Wistar rats weighing between 120 g using streptozotocin at 55 mg/kg body weight and the rats are fed with wheat bran (1 to 5%), guar gum (1 to 2.5%) and butyric acid in the range of 1, 2, 4, 6, 8 and 10 mg/kg body weight/day in drinking water. After 4 days measuring fasting blood glucose level in the plasma and urinary sugar levels assessed the diabetic status.
Diabetes is induced in Male Wistar rats weighing between 120 g using streptozotocin at 55 mg/kg body weight and the rats are fed with wheat bran (1 to 5%), guar gum (1 to 2.5%) and butyric acid in the range of 250, 500 and 750 mg/kg body weight/day in drinking water. After 4 days measuring fasting blood glucose level in the plasma and urinary sugar levels assessed the diabetic status.
Urinary protein is determined at the end of fifth week by TCA precipitation method and the absorbance is measured at 660 nm (Table 2).

[3] = FFD-250: fibre fed (wheat bran, guar gum) diabetic rats, 250 mg butyric acid/kg body weight/day in drinking water
[4] = FFD-500: fibre fed (wheat bran, guar gum) diabetic rats, 500 mg butyric acid/kg body weight/day in drinking water
[5] = FFD-750: fibre fed (wheat bran, guar gum) diabetic rats, 750 mg butyric acid/kg body weight/day in drinking water
[6] = SFD-250: starch fed diabetic rats, 250 mg butyric acid/kg body weight/day in drinking water
[7] = SFD-500: starch fed diabetic rats, 500 mg butyric acid/kg body weight/day in drinking water
[8] = SFD-750: starch fed diabetic rats, 750 mg butyric acid/kg body weight/day in drinking water

CCCC(=O)O [butyric acid]
GFR (diabetic rats [1]; [3]): 10.56 ± 1.05^b mL/min
GFR (diabetic rats [1]; [4]): 9.23 ± 1.09^b mL/min
GFR (diabetic rats [1]; [5]): 11.64 ± 1.27^b mL/min
GFR (diabetic rats [1]; [6]): 15.99 ± 1.30 mL/min
GFR (diabetic rats [1]; [7]): 15.60 ± 1.21 mL/min
GFR (diabetic rats [1]; [8]): 15.23 ± 1.04 mL/min
Urinary protein (diabetic rats [2]; [3]): 104.07 ± 11.31^b mg/24 h
Urinary protein (diabetic rats [2]; [4]): 88.82 ± 9.82^b mg/24 h
Urinary protein (diabetic rats [2]; [5]): 90.37 ± 9.14^b mg/24 h
Urinary protein (diabetic rats [2]; [6]): 126.77 ± 9.82 mg/24 h
Urinary protein (diabetic rats [2]; [7]): 124.86 ± 6.81^b mg/24 h
Urinary protein (diabetic rats [2]; [8]): 115.37 ± 10.91 mg/24 h

Reference: patent US6884421B2, “Pharmaceutical composition for diabetic nephropathy” (Council of Scientific and Industrial Research, priority 2002, dated 2005)
